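Assay format: 96-well plates, 48-hour exposure. GI50 = concentration required for 50% inhibition of growth.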 Calls of active or inactive are those of the source. Rule as the data show it: active = GI50 up to about 1.1 µM and inactive = higher.
What was measured:
Experiment in all cases: DTP human tumour cell line panel, 48 h
HOP-62 = system: HOP-62
Malme-3M = system: Malme-3M
SW-620 = system: SW-620
SR = system: SR
OVCAR-5 = system: OVCAR-5
SK-MEL-28 = system: SK-MEL-28
HCT-116 = system: HCT-116
SNB-78 = system: SNB-78
RPMI-8226 = system: RPMI-8226
COLO 205 = system: COLO 205
K562 = system: K562
M14 = system: M14
IGROV-1 = system: IGROV-1
A498 = system: A498
U-251 = system: U-251
HOP-92 = system: HOP-92
BT-549 = system: BT-549
MCF7 = system: MCF7
MDA-MB-231 = system: MDA-MB-231
PC-3 = system: PC-3

Structure (SMILES) | GI50 (HOP-62) | GI50 (Malme-3M) | GI50 (SW-620) | GI50 (SR) | GI50 (OVCAR-5) | GI50 (SK-MEL-28) | GI50 (HCT-116) | GI50 (SNB-78) | GI50 (RPMI-8226) | GI50 (COLO 205) | GI50 (K562) | GI50 (M14) | GI50 (IGROV-1) | GI50 (A498) | GI50 (U-251) | GI50 (HOP-92) | GI50 (BT-549) | GI50 (MCF7) | GI50 (MDA-MB-231) | GI50 (PC-3)
CC(=O)Nc1ccc(C(=O)N2N=C(C)/C(=C/c3ccccc3O)C2=O)cc1 | > 100 µM (inactive) | > 100 µM (inactive) | > 100 µM (inactive) | > 100 µM (inactive) | > 100 µM (inactive) | > 100 µM (inactive) | > 100 µM (inactive) | > 100 µM (inactive) | > 100 µM (inactive) | > 100 µM (inactive) | > 100 µM (inactive) | > 100 µM (inactive) |  |  |  |  |  |  |  | 
O=C(O)CCC1(Br)CCCCC(Br)C1=O (configuration not stated) | > 100 µM (inactive) | > 100 µM (inactive) | > 100 µM (inactive) |  | > 100 µM (inactive) | > 100 µM (inactive) | > 100 µM (inactive) | > 100 µM (inactive) | > 100 µM (inactive) | > 100 µM (inactive) | > 100 µM (inactive) | > 100 µM (inactive) | > 100 µM (inactive) | > 100 µM (inactive) | > 100 µM (inactive) | 32.7 µM (inactive) |  |  |  | 
CC(=O)OCC1OC(OCCCOP(=S)(OCCC#N)OCC2OC(n3ccc(N)nc3=O)C(OC(=O)c3ccccc3)C2OC(=O)c2ccccc2)C(OC(C)=O)C(OC(C)=O)C1OC(C)=O (configuration not stated) | 43.5 µM (inactive) | > 100 µM (inactive) | > 100 µM (inactive) | > 100 µM (inactive) | > 100 µM (inactive) | > 100 µM (inactive) | > 100 µM (inactive) |  | > 100 µM (inactive) | > 100 µM (inactive) | > 100 µM (inactive) | > 100 µM (inactive) | > 100 µM (inactive) | > 100 µM (inactive) | > 100 µM (inactive) | > 100 µM (inactive) | > 100 µM (inactive) | 46.6 µM (inactive) | > 100 µM (inactive) | > 100 µM (inactive)
Cc1ccc(/C=N/C23CC4CC(CC(C4)C2)C3)cc1 | > 100 µM (inactive) | 25.1 µM (inactive) | > 100 µM (inactive) | > 100 µM (inactive) | > 100 µM (inactive) | > 100 µM (inactive) | > 100 µM (inactive) | > 100 µM (inactive) | > 100 µM (inactive) | > 100 µM (inactive) | > 100 µM (inactive) | > 100 µM (inactive) | > 100 µM (inactive) | > 100 µM (inactive) | > 100 µM (inactive) |  |  |  |  | 
COc1cccc(NC(=O)CSc2nnc(-c3ccc(/N=C\c4ccc(Cl)cc4)cc3)o2)c1 | 31.6 µM (inactive) | 17.7 µM (inactive) | 20.4 µM (inactive) | 28.2 µM (inactive) |  | 18.3 µM (inactive) | 17.2 µM (inactive) | 40.3 µM (inactive) | 18.2 µM (inactive) | 19.4 µM (inactive) | 32.6 µM (inactive) | 19.4 µM (inactive) |  |  | 17.1 µM (inactive) |  |  |  |  | 
C=C1C(=O)OC2C3OC(C)(CCC(O)C3COC(C)=O)CC(OC(=O)/C(=C/C)COC(C)=O)C12 (configuration not stated) | 3.08 µM (inactive) | 0.0242 µM (active) | 0.0807 µM (active) | 0.196 µM (active) | 0.586 µM (active) | 0.116 µM (active) | 0.0796 µM (active) |  | 0.0698 µM (active) | 0.082 µM (active) | 0.0775 µM (active) | 0.469 µM (active) | 0.738 µM (active) | 1.58 µM (inactive) | 1.22 µM (inactive) | 0.159 µM (active) | 0.18 µM (active) | 0.128 µM (active) | 0.53 µM (active) | 1.48 µM (inactive)
C/C(CC(=O)Nc1ccc(Cl)cc1)=N\NC(N)=S | 67.9 µM (inactive) | > 100 µM (inactive) | > 100 µM (inactive) |  | > 100 µM (inactive) | > 100 µM (inactive) | 71.4 µM (inactive) | > 100 µM (inactive) | 61.8 µM (inactive) | 23.3 µM (inactive) | 5.43 µM (inactive) | 6.47 µM (inactive) | > 100 µM (inactive) | > 100 µM (inactive) | > 100 µM (inactive) | > 100 µM (inactive) |  |  |  | 
C[C@]12Cc3conc3C(O)=C1CC[C@@H]1C2CC[C@@]2(C)C1CC[C@@H]2O (some centres not stated) | 50.4 µM (inactive) | 9.4 µM (inactive) | 15.5 µM (inactive) |  | 50.2 µM (inactive) | 12.1 µM (inactive) |  | 22.2 µM (inactive) | 1.93 µM (inactive) | 32.7 µM (inactive) | 3.66 µM (inactive) | 12.4 µM (inactive) | 26 µM (inactive) | 9.12 µM (inactive) | 20 µM (inactive) | 22.8 µM (inactive) |  |  |  | 
CCCCCCCCCCCCCc1nnn[nH]1 | 18.2 µM (inactive) | 18.1 µM (inactive) | 20 µM (inactive) |  | 18.5 µM (inactive) | 17.8 µM (inactive) | 17.9 µM (inactive) | 21.4 µM (inactive) | 22.4 µM (inactive) | 19.4 µM (inactive) |  | 17.5 µM (inactive) | 21.2 µM (inactive) | 17 µM (inactive) | 18.2 µM (inactive) | 15.6 µM (inactive) |  |  |  | 
Cc1ccc(S(=O)(=O)c2ccc(N)cc2)cc1 | > 100 µM (inactive) | > 100 µM (inactive) | > 100 µM (inactive) |  | > 100 µM (inactive) | > 100 µM (inactive) | > 100 µM (inactive) | > 100 µM (inactive) | > 100 µM (inactive) |  | > 100 µM (inactive) | > 100 µM (inactive) | > 100 µM (inactive) | > 100 µM (inactive) | > 100 µM (inactive) |  |  |  |  | 
NC(=O)NC(=O)c1cccc(NC(=O)CF)c1 | > 100 µM (inactive) | > 100 µM (inactive) | > 100 µM (inactive) | > 100 µM (inactive) | > 100 µM (inactive) | > 100 µM (inactive) | > 100 µM (inactive) |  | > 100 µM (inactive) | > 100 µM (inactive) | > 100 µM (inactive) | 41.4 µM (inactive) | > 100 µM (inactive) | > 100 µM (inactive) | > 100 µM (inactive) | > 100 µM (inactive) | > 100 µM (inactive) | > 100 µM (inactive) | > 100 µM (inactive) | > 100 µM (inactive)
CNC(=O)N(C)C(=O)c1ccccc1C(=O)N(C)C(=O)NC | > 10 µM (inactive) | > 10 µM (inactive) | > 10 µM (inactive) | > 10 µM (inactive) | > 10 µM (inactive) | > 10 µM (inactive) | > 10 µM (inactive) |  | > 10 µM (inactive) | > 10 µM (inactive) | > 10 µM (inactive) | > 10 µM (inactive) | > 10 µM (inactive) | > 10 µM (inactive) | > 10 µM (inactive) | > 10 µM (inactive) | > 10 µM (inactive) | > 10 µM (inactive) | > 10 µM (inactive) | > 10 µM (inactive)
c1ccc(B2OCC(C3OB(c4ccccc4)OC4COB(c5ccccc5)OC43)O2)cc1 (configuration not stated) | > 100 µM (inactive) | > 100 µM (inactive) | > 100 µM (inactive) | > 100 µM (inactive) | > 100 µM (inactive) | > 100 µM (inactive) | > 100 µM (inactive) |  | > 100 µM (inactive) | > 100 µM (inactive) | > 100 µM (inactive) | > 100 µM (inactive) | > 100 µM (inactive) | > 100 µM (inactive) | > 100 µM (inactive) | > 100 µM (inactive) | > 100 µM (inactive) | > 100 µM (inactive) | > 100 µM (inactive) | > 100 µM (inactive)
Cc1ccc(/N=C2\C(=O)C3=C(OC(C)(C)CC3)c3ccccc32)cc1 | 0.542 µM (active) | 0.352 µM (active) | 0.738 µM (active) | 0.275 µM (active) | 1.51 µM (inactive) | 1.21 µM (inactive) | 0.292 µM (active) |  | 0.232 µM (active) | 1.69 µM (inactive) | 0.197 µM (active) | 0.459 µM (active) | 0.703 µM (active) | 2.06 µM (inactive) | 0.577 µM (active) | 1.77 µM (inactive) | 1.33 µM (inactive) | 0.29 µM (active) | 1.68 µM (inactive) | 1.22 µM (inactive)
c1ccc([P+](Cc2ccc(C[P+](c3ccccc3)(c3ccccc3)c3ccccc3)s2)(c2ccccc2)c2ccccc2)cc1 | > 100 µM (inactive) | > 100 µM (inactive) | > 100 µM (inactive) | > 100 µM (inactive) | > 100 µM (inactive) | > 100 µM (inactive) | > 100 µM (inactive) |  | > 100 µM (inactive) | > 100 µM (inactive) | > 100 µM (inactive) | > 100 µM (inactive) | > 100 µM (inactive) | > 100 µM (inactive) | > 100 µM (inactive) | > 100 µM (inactive) | > 100 µM (inactive) | > 100 µM (inactive) | > 100 µM (inactive) | > 100 µM (inactive)
Cc1nn(C)c(=S)n(C)c1=O | 1.81 µM (inactive) | 2.89 µM (inactive) | 1.79 µM (inactive) |  | 2.26 µM (inactive) | 0.571 µM (active) | 0.416 µM (active) | 3.18 µM (inactive) | 0.556 µM (active) | 4.16 µM (inactive) | 0.343 µM (active) | 0.773 µM (active) | 1 µM (active) | 3.22 µM (inactive) | 1.75 µM (inactive) | 0.291 µM (active) |  |  |  | 
Cc1cc(O)c(C(C)C)cc1C1(c2cc(C(C)C)c(O)cc2C)OC(=O)c2ccccc21 | 2.76 µM (inactive) | 2.21 µM (inactive) | 1.76 µM (inactive) | 1.36 µM (inactive) | 2.38 µM (inactive) | 1.6 µM (inactive) | 1.67 µM (inactive) |  | 1.21 µM (inactive) | 1.93 µM (inactive) | 1.19 µM (inactive) | 1.82 µM (inactive) | 2.81 µM (inactive) | 2.43 µM (inactive) | 1.97 µM (inactive) | 1.92 µM (inactive) | 2.24 µM (inactive) | 1.84 µM (inactive) | 1.91 µM (inactive) | 2.26 µM (inactive)

From ChEMBL document CHEMBL1201862, “PubChem BioAssay data set” (2004)
